Experiments:
BKPyV = BKPyV infection of RPTE/TERT1 cells, immunofluorescence count of LTAg / VP1 positive cells; format: cell-based, BK polyomavirus; conditions: 48 hpi; for early gene (LTAg) expression, LTAg positive cells as a proportion of DAPI-positive cells / late gene (VP1) expression, VP1 positive cells as a proportion of DAPI-positive cells: particularly at double proliferative IC50 (20 µM PF-9366, 514 nM AG-270), MOI 1
Method: (A) Effect of PF-9366 on viral early gene expression: Cells were infected with BKPyV (MOI 1) in media containing appropriate drug concentrations. At 1 hpi infectious media was removed, cells were washed and fresh media with appropriate drug concentrations was added. Cells were formaldehyde fixed at 48 hpi and stained for DAPI and LTAg expression and detected by fluorescence microscopy. The number of infected LTAg positive cells were recorded, normalized to cell number. n=3.
Effect of drug treatment on cellular replication and survival and viral early gene expression: Cells were infected with BKPyV (MOI 1) in media containing appropriate drug concentrations. At 1 hpi infectious media was removed, cells were washed and fresh media with appropriate drug concentrations was added. Cells were formaldehyde fixed at 48 hpi and stained for nuclear DAPI and LTAg expression, then detected by fluorescence microscopy. The number of cells per well were determined through DAPI analysis (i) Effect of drug treatment on viral early and late gene expression: The number of infected cells were determined by LTAg (early gene) and VP1 (late gene) expression (ii).
Treatment began 3 hours prior to infection and continued throughout infection. Cells were infected with BKPyV (MOI 1), at 1 hpi cells were washed with PBS and replenished with fresh drug treated media. At 48 hpi cells were fixed with 3% formaldehyde and stained for LTAg expression, and the nuclei counterstained with DAPI. The number of LTAg positive cells were counted and normalised to the total cell number in each condition, and the fold change in proportion of LTAg positive cells for each concentration of PF-9366 was normalised to untreated control.
To investigate whether MAT2A inhibition by a structurally different inhibitor to PF-9366 could cause similar effects, the effect of AG-270 on BKPyV infection was investigated. As above, drugs were used to treat cells from 3 hours prior to infection. Drug concentrations used were the IC50 value defined by inhibition of cell proliferation (proliferative IC50) or double the proliferative IC50, and DMSO was used as a control. Cells were infected with BKPyV (MOI 1), at 1 hpi cells were washed and fresh drug-containing media was added. At 48 hpi cells were fixed in 3% formaldehyde and stained for DAPI, viral early gene LTAg, and viral late gene VP1. The number of cells in each condition were counted and normalised to DMSO treated cells (FIG. 4A(i)). The number of cells represents both cell viability, and the ability of the drug in question to inhibit cellular proliferation.
For BKPyV infections, RPTE/TERT1, RPTE/TERT1-Cas9 or RPTE/TERT1 MAT2A KO cells were infected with BKPyV at either a multiplicity of infection (MOI) of 5 for growth curves or an MOI of 3 or 1 for all other experiments, diluted in appropriate medium. At 1 hour post infection (hpi) medium was removed, cells were washed twice with phosphate-buffered saline (PBS), and fresh medium was added with or without inhibitors. At 24, 48, 72 or 96 hpi cells were either harvested for western blot, RT qPCR or virus titre by FFU assay, or fixed for immunofluorescence analysis.
For fluorescence intensity analysis, 20 fields of view were captured for each experiment. All quantification analyses were carried out using ImageJ and an optimised robust automated detection pipeline Schindelin et al. (Nat Methods. 2012 Jun. 28; 9 (7): 676-82). […] LTAg-staining patterns across each field of view were measured by quantifying the fluorescence intensity using the Mean Grey Value (MGV) function of ImageJ and averaging the results for each experimental condition. Individual cell fluorescence intensity was determined by drawing polygon selections around each LTAg-positive nuclei in ImageJ and measuring the nuclear area, MGV and integrated density, then doing the same for background areas close to each nuclei measured. […]

Zika American Strain = experiment: Western blot of Zika E protein in VERO E6 cells, American strain; format: cell-based, Zika virus; conditions: 20 μM, MOI >10, 48 hrs
Method: (§1) (B) Zika: VERO E6 cells were plated. The following day 20 μM PF-9366 or DMSO control was added to media. After 3 hrs cells were infected with Zika African strain, American Strain or Mock infected (MOI >10). After 48 hrs cells were harvested by scraping, pelleted and lysed into lysis buffer. Western blot was then conducted on the lysed cells. Protein embedded SDS-PAGE gels were transferred to membranes overnight and then probed for Zika E protein and GAPDH as a control.
(§2) For Flavivirus infections VERO E6 cells were infected with either African (Afn) or American (Amer) Zika at a multiplicity of infection (MOI) greater than 10, diluted in appropriate medium. At 1 hour post infection (hpi) medium was removed, cells were washed twice with phosphate-buffered saline (PBS), and fresh medium was added. At 48 hpi cells were either harvested for western blot.
(§3) Cell lysate preparation and western blots were performed as described in Ren et al. (J Gen Virol. 2012 February; 93 (Pt 2): 319-329). Primary antibodies used were ab53977 (VP1), PAb416 (LTAg), sc-166452 (MAT2A/1A), ab110226 (VP16), sc-53070 (ICP0), anti-Zika E Protein, and either anti-GAPDH or anti-tubulin as a loading control, followed by IRDye 680LT-, or IRDye 800CW-conjugated secondary antibodies. Imaging was performed using the LI-COR Odyssey Infrared Imaging system. Quantification was performed using LI-COR Image Studio Software. […]

[1] = tested on: Herpes Simplex Virus-1 (HSV-1); experiment: Western blot of HSV-1 ICP0 and VP16 proteins in HaCaT cells; format: cell-based; conditions: 20 μM, MOI 10, 16 hrs
Method: FIG. 9: Inhibition of MAT2A with PF-9366 reduces Herpes Simplex Virus-1 (HSV-1) virion assembly Immortalised keratinocyte (HaCaT) cells were plated and treated with 20 μM PF-9366 or DMSO control. After 3 hrs cells were infected with HSV-1 (MOI 10). After 16 hrs cells were harvested by scraping and either pelleted for western blot or freeze/thawed for titration. To titre: VERO cells were plated and the following day infected with 10-fold dilutions, at 1 hpi cells were overlayed with CMC/media. At 48 hpi cells were fixed and stained with toluidine blue. To western blot: Pellets were lysed and run on SDS-PAGE gel. Proteins were transferred overnight to nitrocellulose membranes. Membranes were probed for HSV-1 ICP0 and VP16 proteins and Tubulin as a control.
For HSV-1 infections HaCaT cells were infected with HSV-1 at a multiplicity of infection (MOI) of 10 diluted in appropriate medium. At 1 hour post infection (hpi) medium was removed, cells were washed twice with phosphate-buffered saline (PBS), and fresh medium was added with or without inhibitors. At 16 hpi cells were either harvested for western blot or virus titre by plaque assay.
Cell lysate preparation and western blots were performed as described in Ren et al. (J Gen Virol. 2012 February; 93 (Pt 2): 319-329). […] Quantification was performed using LI-COR Image Studio Software.

Zika African strain = experiment: Western blot of Zika E protein in VERO E6 cells, African strain; format: cell-based, Zika virus; conditions: 20 μM, MOI >10, 48 hrs
Method: as §1, §2, §3

Structure (SMILES)	early gene (LTAg) expression, LTAg positive cells as a proportion of DAPI-positive cells (BKPyV)	late gene (VP1) expression, VP1 positive cells as a proportion of DAPI-positive cells (BKPyV)	reduction in LTAg positive cells (BKPyV; 40 μM, BKPyV MOI 1, normalised to untreated control)	number of LTAg positive cells (BKPyV; PF-9366 concentrations of 5 μM and above, BKPyV MOI 1, treatment from 3 h prior to infection)	viral protein expression (Zika E protein), American strain (Zika American Strain)	impact on viral protein expression (ICP0 and VP16) [1]	viral protein expression (Zika E protein), African strain (Zika African strain)
COc1ccc(-c2c(Nc3ccccn3)[nH]c3c(C4=CCCCC4)c(-c4ccccc4)nn3c2=O)cc1 [AG-270]	reduced	reduced	–	–	–	–	–
CN(C)CCc1nnc2cc(-c3ccccc3)c3cc(Cl)ccc3n12 [PF-9366]	reduced	reduced	~95%	significantly reduced	reduction	little impact	reduction
